Results reported in paper PMC10989005, “Inter-phylum circulation of a beta-lactamase-encoding gene: a rare but observable event” (Antimicrobial Agents and Chemotherapy, 2024).

Legend:
Format in all cases: biochemical, Escherichia coli
MUN-1 beta-lactamase [1] = test system: T1, MUN-1 beta-lactamase; experiment: hydrolysis kinetics, purified beta-lactamase; conditions: details in supplement; read-out: Kinetic measurement / Km
T1 construct: gene blaMUN-1; full gene cloned in pTOPO-kanR, expressed in E. coli TOP10, purified by ion exchange; no tag mentioned
From the text: hydrolysis kinetics, purified beta-lactamase on MUN-1 beta-lactamase

MUN-1 beta-lactamase [2] = target: T1, MUN-1 beta-lactamase; experiment: kinetic measurement, purified beta-lactamase; conditions: details in supplement
From the text: kinetic measurement, purified beta-lactamase on MUN-1 beta-lactamase

MUN-1 beta-lactamase [3] = target: T1, MUN-1 beta-lactamase; experiment: beta-lactamase inhibition; conditions: covalent (known mechanism); reporter substrate and buffer only in supplement
[4] = covalent (acylation without deacylation suggested)

| SMILES | Km (MUN-1 beta-lactamase [1]) | Ki (MUN-1 beta-lactamase [2]) | also measured |
| --- | --- | --- | --- |
| CC1(C)S[C@@H]2[C@H](NC(=O)[C@H](N)c3ccccc3)C(=O)N2[C@H]1C(=O)O [Ampicillin] | 280 µM | – | – |
| C[C@H]1[C@H](NC(=O)/C(=N\OC(C)(C)C(=O)O)c2csc(N)n2)C(=O)N1S(=O)(=O)O [Aztreonam] | 45 µM | – | – |
| CC(C)(O/N=C(\C(=O)N[C@@H]1C(=O)N2C(C(=O)[O-])=C(C[n+]3ccccc3)CS[C@H]12)c1csc(N)n1)C(=O)O [Ceftazidime] | – | – | Ki (MUN-1 beta-lactamase [2]; [4]): 580 nM |
| CC(=O)OCC1=C(C(=O)O)N2C(=O)[C@@H](NC(=O)Cc3cccs3)[C@H]2SC1 [Cephalothin] | 15 µM | – | – |
| C[C@@H](O)[C@H]1C(=O)N2C(C(=O)O)=C(S[C@@H]3CN[C@H](C(=O)Nc4cccc(C(=O)O)c4)C3)[C@H](C)[C@H]12 [Ertapenem] | – | 17 nM | – |
| C[C@@H](O)[C@H]1C(=O)N2C(C(=O)O)=C(SCCN=CN)C[C@H]12 [Imipenem] | – | 1.3 nM | – |
| C[C@@H](O)[C@H]1C(=O)N2C(C(=O)O)=C(S[C@@H]3CN[C@H](C(=O)N(C)C)C3)[C@H](C)[C@H]12 [Meropenem] | – | 19 nM | – |
| CC1(C)S[C@@H]2[C@H](NC(=O)Cc3ccccc3)C(=O)N2[C@H]1C(=O)O [Penicillin G] | 95 µM | – | – |
| CCN1CCN(C(=O)N[C@@H](C(=O)N[C@@H]2C(=O)N3[C@@H]2SC(C)(C)[C@@H]3C(=O)O)c2ccccc2)C(=O)C1=O [Piperacillin] | – | – | Ki (MUN-1 beta-lactamase [2]; [4]): 7.2 nM |
| CC1(C)S[C@@H]2[C@H](NC(=O)[C@H](C(=O)O)c3ccsc3)C(=O)N2[C@H]1C(=O)O [Ticarcillin] | – | 3.6 nM | – |
| NC(=O)[C@@H]1CC[C@@H]2CN1C(=O)N2OS(=O)(=O)O [avibactam] | – | – | IC50 (MUN-1 beta-lactamase [3]): 3.8 nM |
| O=C(O)[C@H]1/C(=C/CO)O[C@@H]2CC(=O)N21 [clavulanic acid] | – | – | IC50 (MUN-1 beta-lactamase [3]): 0.32 nM |
| C[C@]1(Cn2ccnn2)[C@H](C(=O)O)N2C(=O)C[C@H]2S1(=O)=O [tazobactam] | – | – | IC50 (MUN-1 beta-lactamase [3]): 0.8 nM |
